Read-outs that look alike come from different tables or passages of the source.
What was measured:
[1] = system: ureteric bud cells derived from Tet-On-ELF5-1231A3 iPS cells; assay type: cell-based, human; conditions: for effect on AQP2 expression in combination with IBMX: factor added together with IBMX
Experimental: Ureteric bud organoids on Day 6 were prepared from the Tet-On-ELF5-1231A3 iPS cells using the method previously described (WO2021/066076). In a 1.5 mL tube, 10 ureteric bud organoids were collected and washed twice with 500 μL PBS. 100 μL Accutase was added thereto, and the mixture was incubated for 3 minutes at 37° C., 5% CO2. The ureteric bud organoids were completely transformed into single cells by pipetting, and 900 μL DMEM/10% PBS was added thereto to count cells.
To a 24-well plate (6-well, 12-well, 48-well or 96-well plate, or 6-well, 12-well, or 24-well transwell plate may also be used), the necessary amount of suspension was collected to achieve 0.25 to 1.0×10^5 cells/cm^2, and centrifuged at 300 G for 5 minutes. The cell count was preferably 1×10^5 cells/cm^2. After removing the supernatant, cells were resuspended in a medium comprising DMEM/F12 GlutaMAX+B-27 Supplement minus vitamin A having 10% FBS, 1 μM A83-01, and 1 μM IWR-1 (renal collecting duct progenitor cell-induction medium) added thereto, to which 0.125 μg/cm^2 iMatrix-511 silk and 10 μM Y-27632 were added, and the suspension was adjusted and seeded so that each well contains 500 μL of the suspension. 0.1 μM TTNPB may be further added the medium.
The medium may further comprise 0.1 μM TTNPB, 100 nM desmopressin (dDAVP), 10 nM aldosterone, and 100 nM K252a, and preferably a medium comprising 3 agents of TTNPB, dDAVP, and aldosterone is suitable. Thereafter, the medium was replaced once every 2 days, and the induction into the principal cells was completed on Day 4.
The cultured cells were washed twice with PBS, and then, fixed with 4% PFA at 4° C. for 20 minutes. The cells were washed twice with PBS, and then, blocked using 2% normal donkey serum (MERCK)/PBT (PBS/0.25% Triton X-100, Nacalai tesque, Inc.) (blocking solution) at room temperature for 1 hour. Each primary antibody was diluted with the blocking solution at a rate of 1:200, and left to stand with samples at 4° C. for 24 hours. After washing twice with 0.25% PBT, each secondary antibody was diluted with the blocking solution at a rate of 1:500, and left to stand with samples at room temperature for 2 hours. The cells were observed using a microscope such as BZX-700 (Keyence Corporation).

[2] = system: mouse renal collecting duct principal cell lines; conditions: previously reported (Ando F. et al., Nat Commun. 2018); cited from earlier work
[3] = system: renal collecting duct principal cell-containing organoid; assay: Functional evaluation of renal collecting duct principal cell-containing organoids (water uptake, cystoid structure); assay type: cell-based, human; conditions: organoid on Day 6 of the induction
Experimental: Ureteric bud organoids on Day 6 were prepared from the Tet-On-ELF5-1231A3 iPS cells using the method previously described (WO2021/066076). The medium was removed and replaced with the renal collecting duct progenitor cell-induction medium of 100 μL/well. 0.1 μM TTNPB may be further added the medium.
3 days later, the medium was replaced with the renal collecting duct principal cell-induction medium of 100 μL/well. The medium may further comprise 0.1 μM TTNPB, 100 nM dDAVP, 10 nM aldosterone, and 100 nM K252a, and preferably a medium comprising 3 agents of TTNPB, dDAVP, and aldosterone is suitable. The medium was replaced once every 2 days, and the preparation of principal cell-containing organoids was completed on Day 6.
The functional evaluation tests were performed on the renal collecting duct principal cell-containing organoids. For the renal collecting duct principal cell-containing organoid on Day 6 of the induction, the medium was replaced with a renal collecting duct principal cell-induction medium, to which 1 μM dDAVP, or with 1 μM dDAVP and 10 μM tolvaptan were added.

[4] = system: renal collecting duct principal cells; assay: Apical-basal polarity of AQP2 in renal collecting duct principal cells, transwell culture; assay type: cell-based, human; conditions: 100 nM dDAVP added to the medium in the lower chamber
Experimental: Ureteric bud organoids on Day 6 were prepared from the Tet-On-ELF5-1231A3 iPS cells using the method previously described (WO2021/066076). In a 1.5 mL tube, 10 ureteric bud organoids were collected and washed twice with 500 μL PBS. 100 μL Accutase was added thereto, and the mixture was incubated for 3 minutes at 37° C., 5% CO2. The ureteric bud organoids were completely transformed into single cells by pipetting, and 900 μL […] was added thereto to count cells. To evaluate the apical-basal polarity, the cells were seeded on a Transwell 12-well plate (Corning Inc., 3460). Specifically, the necessary amount of suspension was collected to achieve 0.5 to 2×10^5 cells/cm^2, and centrifuged at 300 G for 5 minutes. The cell count was preferably 1×10^5 cells/cm^2. After removing the supernatant, cells were resuspended in the renal collecting duct progenitor cell-induction medium, to which 0.125 μg/cm^2 iMatrix-511 silk and 10 μM Y-27632 were added, and the suspension was adjusted and seeded in the upper chamber so that each well contains 300 μL of the suspension. 0.1 μM TTNPB may be further added the medium. 2 or 3 days later, the medium in the upper chamber was removed, and 300 μL renal collecting duct principal cell-induction medium was placed in the lower chamber. […]

[5] = factor added to principal cell-induction medium excluding IBMX, planar culture
[6] = 400 μM IBMX with 4 μM doxycycline in renal collecting duct progenitor cell-induction medium

C[C@]12CCC(=O)C=C1CC[C@@H]1[C@@H]2[C@@H](O)C[C@]2(C=O)[C@@H](C(=O)CO)CC[C@@H]12 [ALD, aldosterone]
AQP2 expression [1, 5]: the AQP2 expression was not promoted
effect on AQP2 expression in combination with IBMX ([1]; planar culture): functioned additively with the addition of IBMX

NC(=O)CC[C@@H]1NC(=O)[C@H](Cc2ccccc2)NC(=O)[C@H](Cc2ccc(O)cc2)NC(=O)[C@@H](N)CSSC[C@@H](C(=O)N2CCC[C@H]2C(=O)N[C@@H](CCCN=C(N)N)C(=O)NCC(N)=O)NC(=O)[C@H](CC(N)=O)NC1=O [AVP, arginine vasopressin]
AQP2 expression [1, 5]: the AQP2 expression was not promoted
effect on AQP2 expression in combination with IBMX ([1]; planar culture): functioned additively with the addition of IBMX

CC(C)Cn1c(=O)n(C)c(=O)c2[nH]cnc21 [IBMX, 3-isobutyl-1-methylxanthine]
AQP2 expression [1, 6]: early expressed AQP2
AVPR2 expression [1, 6]: expressed AVPR2
AQP2 expression ([1]; IBMX added with dDAVP, or with either of AVP and dDAVP, ALD and K252a, planar culture): the AQP2 expression was promoted
number of AQP2-expressing cells ([1]; IBMX at concentrations up to 400 μM, with 4 μM doxycycline): concentration-dependently increased

COC(=O)[C@@]1(O)C[C@H]2O[C@]1(C)n1c3ccccc3c3c4c(c5c6ccccc6n2c5c31)C(=O)NC4 [K252a]
AQP2 expression [1, 5]: the AQP2 expression was not promoted
effect on AQP2 expression in combination with IBMX ([1]; planar culture): functioned additively with the addition of IBMX

NC(=O)CC[C@@H]1NC(=O)[C@H](Cc2ccccc2)NC(=O)[C@H](Cc2ccc(O)cc2)NC(=O)CCSSC[C@@H](C(=O)N2CCC[C@H]2C(=O)N[C@H](CCCN=C(N)N)C(=O)NCC(N)=O)NC(=O)[C@H](CC(N)=O)NC1=O [dDAVP, 1-desamino-8-D-arginine vasopressin]
AQP2 expression and apical polarization [2]: promotes AQP2 expression and causes apical polarization
water uptake and cystoid structure formation ([3]; 1 μM dDAVP): water uptake was promoted from the next day, and a cystoid structure was formed
polarization of AQP2 expression [4]: increase in polarization of AQP2 expression to the contralateral side
effect on AQP2 expression in combination with IBMX ([1]; planar culture): functioned additively with the addition of IBMX

Cc1ccccc1C(=O)Nc1ccc(C(=O)N2CCCC(O)c3cc(Cl)ccc32)c(C)c1 (stereo not drawn) [tolvaptan]
formation of a cystoid structure ([3]; 10 μM tolvaptan together with 1 μM dDAVP): the formation of a cystoid structure was suppressed
